The record followed here is BindingDB's records for PubMed 11408545 (Glaxosmithkline, 2001).

Experiment [1] deals with T1, Alpha-2A adrenergic receptor (Homo sapiens, UniProt P08913).
T1 sequence (P08913 whole entry): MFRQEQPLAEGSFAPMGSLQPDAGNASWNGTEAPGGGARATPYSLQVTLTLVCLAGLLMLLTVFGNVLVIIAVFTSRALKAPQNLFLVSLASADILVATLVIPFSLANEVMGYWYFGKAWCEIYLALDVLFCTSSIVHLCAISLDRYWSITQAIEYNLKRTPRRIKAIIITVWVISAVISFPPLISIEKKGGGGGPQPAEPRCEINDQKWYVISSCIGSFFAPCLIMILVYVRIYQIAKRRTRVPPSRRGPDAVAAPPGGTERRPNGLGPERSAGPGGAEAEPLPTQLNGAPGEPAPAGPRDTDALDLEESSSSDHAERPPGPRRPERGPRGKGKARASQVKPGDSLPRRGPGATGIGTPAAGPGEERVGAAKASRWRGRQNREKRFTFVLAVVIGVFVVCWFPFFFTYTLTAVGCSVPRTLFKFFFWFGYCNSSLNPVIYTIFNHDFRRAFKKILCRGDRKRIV

Experiment [2] concerns the target T2, Alpha-2B adrenergic receptor (Oryctolagus cuniculus, UniProt O77830).
T2 sequence (O77830 whole entry): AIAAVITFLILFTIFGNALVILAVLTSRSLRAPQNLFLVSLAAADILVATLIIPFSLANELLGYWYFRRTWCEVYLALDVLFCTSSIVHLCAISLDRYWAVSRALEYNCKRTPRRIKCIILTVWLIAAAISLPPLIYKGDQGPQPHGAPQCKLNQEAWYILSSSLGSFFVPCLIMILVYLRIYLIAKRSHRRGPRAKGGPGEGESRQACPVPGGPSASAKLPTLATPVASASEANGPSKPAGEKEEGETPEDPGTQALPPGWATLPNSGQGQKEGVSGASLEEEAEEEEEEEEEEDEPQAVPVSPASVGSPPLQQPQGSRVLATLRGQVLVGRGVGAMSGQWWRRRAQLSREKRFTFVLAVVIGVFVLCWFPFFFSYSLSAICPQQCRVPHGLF

Experiment [3] has as its target T3, Alpha-2A adrenergic receptor [16-465] (Rattus norvegicus, UniProt P22909).
T3 construct: 16-465
T3 sequence (P22909 whole entry): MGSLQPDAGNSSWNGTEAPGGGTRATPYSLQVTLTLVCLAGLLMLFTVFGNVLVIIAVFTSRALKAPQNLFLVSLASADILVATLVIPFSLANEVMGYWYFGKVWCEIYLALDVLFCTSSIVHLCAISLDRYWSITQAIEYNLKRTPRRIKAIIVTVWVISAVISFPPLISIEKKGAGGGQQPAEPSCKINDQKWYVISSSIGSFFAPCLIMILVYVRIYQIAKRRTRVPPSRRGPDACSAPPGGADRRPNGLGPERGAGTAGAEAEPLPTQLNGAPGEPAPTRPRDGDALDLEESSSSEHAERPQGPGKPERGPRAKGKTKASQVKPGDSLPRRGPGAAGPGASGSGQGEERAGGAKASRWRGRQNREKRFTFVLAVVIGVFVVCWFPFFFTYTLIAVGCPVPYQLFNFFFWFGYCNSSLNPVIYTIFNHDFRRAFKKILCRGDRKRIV

One may read the Ki as a dissociation constant, usually derived from enzyme kinetics or from competition with a known ligand. High values mean a looser hold on the target, low ones a stronger hold on the target.

Values joined by “and” are separate entries in the source; they are usually repeats but may differ in a detail not shown here. Equal values may be shown once.

`O=C1NCN(c2ccccc2)C12CCN(CC1COc3ccccc3O1)CC2` (stereo not given) [8-(2,3-Dihydro-benzo[1,4]dioxin-2-ylmethyl)-1-phenyl-1,3,8-triaza-spiro[4.5]decan-4-one]: the Ki in experiment [1] was 28.3 nM; in experiment [2] it was 169 nM and 129 nM; in experiment [3], 92 nM.
As for `COC(=O)C1=COC(C)C2CN3CCc4c([nH]c5ccccc45)C3CC12` (stereo not given) [Ajmalicine], the Ki in experiment [1] was 47.6 nM; in experiment [2], 376 nM and 429 nM; in experiment [3], 1470 nM.
For the compound `CN1C[C@H](Cn2ccnc2-c2ccccc2)C[C@@H]2c3cccc4[nH]c(Br)c(c34)C[C@H]21` [BAM-1303], the Ki in experiment [1] is 18.1 nM; in experiment [2] it was 95.3 nM and 46 nM; in experiment [3], 313 nM.
As to `COc1ccccc1N1CCN(CCC2C(=O)c3ccccc3C(C)(C)C2=O)CC1` (stereo not given) [NSC_122211], the Ki was 373 nM in experiment [1], above 10000 nM in experiment [2] and 484 nM in experiment [3].
Regarding `COc1cccc(OC)c1OCCNCC1Oc2ccccc2OC1c1ccccc1` (stereo not given) [NSC_185453], the Ki in experiment [1] is 3.5 nM; in experiment [2], 5.3 nM and 11.8 nM; in experiment [3], 142 nM.
Turning to `NCC(O)c1ccc(O)c(O)c1` (stereo not drawn) [Noradrenaline,(+)], in experiment [2], the inhibitory constant (Ki) was 284 nM and 57 nM.
Turning to `COC1(C2=NCCN2)COc2ccccc2O1` (stereo not given) [RX821002], the inhibition constant Ki in experiment [2] is 7.3 nM and 6.4 nM; in experiment [3], 0.95 nM.
With `CC(C)=CCOc1ccc(Cl)c2c1CCN(C)CC2` [SK&F-104078], the inhibition constant Ki was 30.4 nM in experiment [1]; 292 nM and 191 nM in experiment [2]; 244 nM in experiment [3].
Consider `Cc1ccc(N(CC2=NCCN2)c2cccc(O)c2)cc1` [SMR000059054], for which the inhibition constant (Ki) in experiment [2] was 24.1 nM and 18.4 nM.
Same read-out and setting: then `Cc1cc(C(C)(C)C)c(O)c(C)c1CC1=NCCN1` [SMR000059324], with 6.3 nM and 4.5 nM; and `CN(C)CCCN1c2ccccc2Sc2ccc(Cl)cc21` [[3-(2-Chloro-phenothiazin-10-yl)-propyl]-dimethyl-amine(Chlorpromazine)], with 2690 nM and 3130 nM; and `COc1cc2nc(N3CCN(C(=O)c4ccco4)CC3)nc(N)c2cc1OC` [[3H]-Minipress], with above 10000 nM.
